From patent US20090110671A1, “AGENT FOR ENHANCHING THE PRODUCTION OF COLLAGEN AND IT'S USE” (priority 2005, published 2009)

Tests used:
Details in all cases: relative to AA-2G = 100
[1] = system: NHDF cells (normal human dermal fibroblast cell); assay: Experiment 1: collagen production in NHDF cells (Sircol kit), α,α-trehalose with AA-2G; type: cell-based
Protocol: Using “fibrocell NHDF”, a normal human dermal fibroblast cell, commercialized by Kurashiki Spinning Co., Ltd., Okayama, Japan (abbreviated as “NHDF cells”, hereinafter), experiment for studying the influence of α,α-trehalose on the collagen production by L-ascorbic acids was conducted based on the method described in Bioscience, Biotechnology, and Biochemistry, Vol. 68, No. 4, pp. 767-773, 2004. The method is outlined below: Test solutions were prepared by dissolving L-ascorbic acid 2-glucoside, a reagent grade specimen commercialized by Hayashibara Biochemical Laboratories Inc., Okayama, Japan (may be abbreviated as “AA-2G”, hereinafter), and α,α-trehalose, a reagent grade specimen commercialized by Hayashibara Biochemical Laboratories Inc., Okayama, Japan, in Dulbecco […] essential medium containing 10% (v/v) fetal calf serum and an antibiotic (abbreviated as “D-MEM”, hereinafter) to give a final concentration of 50 μM/ml of AA-2G and a final concentration of 7.5, 15 or 30 mg/ml of α,α-trehalose. NHDF cells, which had been successively cultured in D-MEM medium, were collected, re-suspended in a fresh preparation of D-MEM medium, inoculated to 96-well microplates at a cell concentration of 2.5×10^4 cells/200 μl/well, and cultured for 24 hours. Thereafter, the supernatants of the cultures were removed by sucking, and further cultured for five days after addition of any of the test solutions in a volume of 200 μl/well. As controls, the cells, which had been cultured for 24 hours, were further cultured for five days after addition of 200 μl/well of D-MEM medium, D-MEM medium supplemented with α,α-trehalose at a concentration of 30 mg/ml, or D-MEM medium supplemented with AA-2G at a concentration of 50 μM/ml. After completion of culturing, the supernatants of the cultures were removed by sucking, admixed with 50 μl/well of 1 M acetic acid solution containing 1 mg/ml of pepsin, and shaken for four hours to solubilize collagen adhered to the cell surfaces, followed by quantifying the content of collagen accumulated in the cells using “Sircol Collagen Quantification Kit”, commercialized by Biocolor Ltd. These control and test solutions were respectively experimented with three wells, followed by calculating a mean value for collagen-production levels in the wells. All the cultures of the NHDF cells were conducted in a 5% (v/v) CO2 incubator. The results are in Table 1 where the values are expressed with relative values in terms of the collagen-production level of NHDF cells, which had been cultured in D-MEM medium containing AA-2G, being regarded as 100.

NHDF cells [2] = assay: Experiment 2: collagen sedimented over cell surface and released in supernatant of NHDF cells, α,α-trehalose or maltose with AA-2G; type: cell-based, human
Protocol: Influence of α,α-trehalose and maltose on collagen production using NHDF cells was examined by the following experiment: Test solutions were prepared by dissolving either AA-2G; hydrous crystalline α,α-trehalose, a reagent grade specimen, commercialized by Hayashibara Biochemical Laboratories Inc., Okayama, Japan; or hydrous crystalline maltose, a reagent grade specimen, commercialized by Hayashibara Biochemical Laboratories Inc., Okayama; Japan, in […] The methods for culturing NHDF cells and quantifying the collagen-production level of the cells were conducted similarly as in Experiment 1. The collagen level in each culture supernatant of NHDF cells was determined in such a manner of collecting the culture supernatant and quantifying the collagen released in the supernatant by using “Sircol Collagen Quantification Kit”. As a control, D-MEM medium containing 50 μM AA-2G was used. These control and test solutions were respectively experimented using three wells, followed by calculating a mean value for collagen-production levels in the wells. The results are in Table 2 where the values are expressed with relative values for either or both of the levels of collagen, that had sedimented over the cell surfaces or released in the supernatants, in terms of their collagen-production levels of NHDF cells, which had been cultured in D-MEM medium containing 50 μM AA-2G, being regarded as 100.

NHDF cells [3] = assay: Experiment 3: collagen production in NHDF cells, α,α-trehalose and saccharide derivatives with or without AA-2G; type: cell-based, human
Protocol: Based on the confirmation that α,α-trehalose has an action of enhancing the collagen production by L-ascorbic acid, it was experimented as follows to confirm whether saccharide derivatives of α,α-trehalose have such a similar action and effect. Test solutions were prepared by dissolving in D-MEM medium any one of AA-2G, hydrous crystalline α,α-trehalose, a reagent grade specimen with a purity of at least 98%, commercialized by Hayashibara Biochemical Laboratories Inc., Okayama, Japan; “HALLODEX”, a product name of a syrup of saccharide derivatives of α,α-trehalose, having a solid content of about 75% and containing, on a dry solid basis, about 53% of α-maltosyl α,α-trehalose and about 5% of other saccharide derivatives of α,α-trehalose in total, to give final concentrations of 50 μM of AA-2G and 15.0 mg/ml of saccharides. As a control, test solutions were prepared by dissolving in D-MEM medium either of the above hydrous crystalline α,α-trehalose, α-maltosyl α,α-trehalose, or syrup of saccharide derivatives of α,α-trehalose to give a final concentration of 15.0 mg/ml. The medium admixed with the syrup containing saccharide derivatives of α,α-trehalose was adjusted to give a concentration of 15.0 mg/ml of saccharide derivatives of α,α-trehalose. The culture of NHDF cells and the quantification of collagen-production level thereof were carried out similarly as in Experiment 1. The results are in Table 3, where the values are expressed with relative values in terms of the collagen production level of NHDF cells, being regarded as 100, when cultured in D-MEM medium containing AA-2G.

[4] = saccharide 0.2 mg/ml + 50 μM AA-2G
[5] = saccharide 0.6 mg/ml + 50 μM AA-2G
[6] = saccharide 1.7 mg/ml + 50 μM AA-2G
[7] = saccharide 5.0 mg/ml + 50 μM AA-2G
[8] = saccharide 15.0 mg/ml + 50 μM AA-2G

OC[C@H]1O[C@H](O[C@H]2O[C@H](CO)[C@@H](O)[C@H](O)[C@H]2O)[C@H](O)[C@@H](O)[C@@H]1O [α,α-trehalose]
Collagen-production level ([1]; α,α-trehalose 7.5 mg/ml + 50 μM AA-2G): 150
Collagen-production level ([1]; α,α-trehalose 15.0 mg/ml + 50 μM AA-2G): 217
Collagen-production level ([1]; α,α-trehalose 30.0 mg/ml + 50 μM AA-2G): 264
Collagen-production level ([1]; α,α-trehalose 30.0 mg/ml in D-MEM, no AA-2G): 41
Collagen-production level, In supernatant (NHDF cells [2]; [4]): 103
Collagen-production level, Total (NHDF cells [2]; [4]): 101
Collagen-production level, In supernatant (NHDF cells [2]; [5]): 203
Collagen-production level, Total (NHDF cells [2]; [5]): 131
Collagen-production level, In supernatant (NHDF cells [2]; [6]): 250
Collagen-production level, Total (NHDF cells [2]; [6]): 154
Collagen-production level, In supernatant (NHDF cells [2]; [7]): 232
Collagen-production level, Total (NHDF cells [2]; [7]): 169
Collagen-production level, In supernatant (NHDF cells [2]; [8]): 1058
Collagen-production level, Total (NHDF cells [2]; [8]): 335
Collagen-production level (NHDF cells [3]; [8]): 227
Collagen-production level (NHDF cells [3]; saccharide 15.0 mg/ml, AA-2G not added): 40
